# ChEMBL document CHEMBL5518158, “Recent advances in triazoles as tyrosinase inhibitors” (Eur J Med Chem, 2023)
# Several values for one entry are separate records, joined by “and”; a condition that tells them apart may be missing. Equal values may be shown once.
# Target: T1, Mushroom tyrosinase (Agaricus bisporus, UniProt O42713+Q00024+C7FF04+C7FF05)
# Test: Inhibition of mushroom tyrosinase using L-DOPA as substrate preincubated for 10 mins
# Type: protein assay
row,SMILES,IC50 [µM]
1,Nn1c(SCc2cc(=O)c(O)co2)nnc1-c1ccccc1Br,5.98
2,Nn1c(SCc2cc(=O)c(O)co2)nnc1-c1ccccc1,7.45
3,O=C(CSc1nnc(-c2ccc(F)cc2)n1-c1ccc(F)cc1)Nc1ccccc1,0.124
4,Cc1ccc(-c2nnc(SCc3cc(=O)c(O)co3)n2N)cc1,6.25
5,Nn1c(SCc2cc(=O)c(O)co2)nnc1-c1ccc(Cl)cc1,4.5
6,Cc1nnc(SCc2cc(=O)c(O)co2)n1N,91.03
7,O=C(CSc1nnc(-c2ccccc2)n1-c1ccc(F)cc1)Nc1ccc(Br)cc1,0.142
8,O=c1cc(O)oc(CSc2nnc(-c3ccccc3)n2NCc2ccc(O)cc2O)c1,1.35
9,O=C(CSc1nnc(-c2ccccc2F)n1-c1ccc(F)cc1)Nc1ccccc1,0.11
10,Nn1c(SCc2cc(=O)c(O)co2)nnc1-c1ccccc1Cl,5.35
11,O=c1cc(O)oc(CSc2nnc(-c3ccccc3Cl)n2/N=C/c2ccc(O)c(O)c2)c1,5.2
12,CCCCCn1nc(-c2ccccc2)n(CC(=O)NNC(=O)Nc2ccc(Cl)cc2Cl)c1=O,0.001
13,Cn1cnnc1SCc1cc(=O)c(O)co1,19.18

# Target: T1, Mushroom tyrosinase
# Test: Inhibition of mushroom tyrosinase using L-DOPA as substrate preincubated for 10 mins followed by substrate addition and measured after 15 mins by spectrophotometric method
# Type: protein assay
row,SMILES,IC50 [µM]
1,CCc1ccc(CNC(=O)CSc2nnc(Cc3csc(N)n3)n2-c2ccccc2)cc1,0.122
2,Cc1cc(C)cc(CNC(=O)CSc2nnc(Cc3csc(N)n3)n2-c2ccccc2)c1,0.24
3,Cc1ccccc1CNC(=O)CSc1nnc(Cc2csc(N)n2)n1-c1ccccc1,0.015
4,Cc1ccc(CNC(=O)CSc2nnc(Cc3csc(N)n3)n2-c2ccccc2)cc1C,0.113
5,Cc1cccc(C)c1CNC(=O)CSc1nnc(Cc2csc(N)n2)n1-c1ccccc1,0.05
6,Cc1cccc(CNC(=O)CSc2nnc(Cc3csc(N)n3)n2-c2ccccc2)c1C,2.01
7,Nc1nc(Cc2nnc(SCC(=O)NCCc3ccccc3)n2-c2ccccc2)cs1,0.01

# Target: T1, Mushroom tyrosinase
# Test: Inhibition of mushroom tyrosinase using L-DOPA as substrate pre-treated for 10 mins followed by substrate addition measured for 20 mins by spectrophotometric analysis
# Type: protein assay
row,SMILES,IC50 [µM]
1,Cc1ccccc1CNC(=O)CSc1nnc(Cc2csc(N)n2)n1-c1ccccc1,16.832
2,CCn1c(Cc2csc(N)n2)nnc1SCc1ccc(Cl)cc1Cl,0.001
3,CCn1c(Cc2csc(N)n2)nnc1SCc1cccc(Br)c1,0.002
4,CCn1c(Cc2csc(N)n2)nnc1SCc1ccc(Cl)cc1,0.006
5,CCn1c(Cc2csc(N)n2)nnc1SCc1ccccc1Cl,0.006

# Target: T1, Mushroom tyrosinase
# Test: Inhibition of mushroom tyrosinase
# Type: protein assay
row,SMILES,IC50 [µM]
1,O=C1N=C(Nc2ccccc2)S/C1=C\c1ccccc1OCc1cn(Cc2ccccc2)nn1,8.92
2,CCn1c(CCCc2c[nH]c3ccccc23)nnc1SCC(=O)Nc1ccc(C)cc1C,0.034
3,O=C1N=C(Nc2ccccc2)S/C1=C\c1ccc(OCc2cnnn2Cc2ccc(Cl)c(Cl)c2)cc1,49.4
4,CCOc1ccc(NC(=O)CSc2nnc(CCCc3c[nH]c4ccccc34)n2CC)cc1,0.072
5,NC(=S)N/N=C/c1ccc(OCc2cn(CC(=O)NCc3ccccc3)nn2)cc1,0.11
6,C=CCc1ccc(O)c(OC)c1 [EUGENOL],923
7,COc1ccc(/C=N/Nc2nnc(S)n2N)cc1O,3.4
8,CCn1c(CCCc2c[nH]c3ccccc23)nnc1SCC(=O)Nc1cccc(C)c1C,0.142
9,CCn1c(CCCc2c[nH]c3ccccc23)nnc1SCC(=O)Nc1ccccc1C,0.036
10,O=C1N=C(Nc2ccncc2)S/C1=C\c1ccccc1OCc1cn(Cc2ccccc2Cl)nn1,6.34
11,O=C1N=C(Nc2ccncc2)S/C1=C\c1ccccc1OCc1cn(Cc2ccc(Cl)c(Cl)c2)nn1,5.9
12,COc1ccc2c(c1)CC/C(=C\c1ccc(OCc3cn(Cc4cccc(Cl)c4)nn3)c(OC)c1)C2=O,4.64
13,COc1ccc2c(c1)CC/C(=C\c1ccc(OCc3cn(Cc4ccccc4F)nn3)c(OC)c1)C2=O,67.18
14,Cc1ccc(Cn2cc(COc3ccc(-c4nc5ccccc5[nH]4)cc3)nn2)cc1,10.34
15,Cc1ccc(Cn2cc(COc3ccc(-c4nc5ccccc5[nH]4)cc3)nn2)cc1C,9.42
16,Nn1c(S)nnc1N/N=C/c1cccc(Cl)c1,15
17,COc1cc(C=O)ccc1O [VANILLIN],4103
18,CCc1ccccc1NC(=O)CSc1nnc(CCCc2c[nH]c3ccccc23)n1CC,0.033
19,Nn1c(S)nnc1N/N=C/c1cccc(C(F)(F)F)c1,9
20,COc1ccccc1-n1c(SCC(=O)Nc2ccccc2)nnc1-c1ccccc1,0.0238
21,COc1cc(/C=N/Nc2nnc(S)n2N)ccc1O,14.6
22,Cc1ccc2nc(-c3ccc(OCc4cn(Cc5ccccc5)nn4)cc3)[nH]c2c1,43.3
23,O=C1N=C(Nc2ccccc2)S/C1=C\c1ccccc1OCc1cn(Cc2cccc(Br)c2)nn1,9.81
24,COc1ccccc1-n1c(SCC(=O)Nc2ccc(Br)cc2)nnc1-c1ccccc1F,0.0048
25,CCn1c(CCCc2c[nH]c3ccccc23)nnc1SCC(=O)Nc1c(C)cccc1C,0.035

# Target: T2, Mushroom tyrosinase (Agaricus bisporus) (UniProt O42713+Q00024+C7FF04+C7FF05)
# Test: Inhibition of mushroom tyrosinase at 100 uM relative to control
# Type: protein assay
row,SMILES,inhibition [%]
1,COc1ccc(/C=N/Nc2nnc(S)n2N)cc1O,98
2,Nn1c(S)nnc1N/N=C/c1cccc(Cl)c1,81
3,Nn1c(S)nnc1N/N=C/c1cccc(C(F)(F)F)c1,95

# Target: T1, Mushroom tyrosinase
# Test: Inhibition of mushroom tyrosinase using L-dopa as substrate by spectrophotometric method
# Type: protein assay
row,SMILES,IC50 [µM]
1,Nn1c(S)nnc1N/N=C\c1cccc(O)c1,7
2,Nn1c(S)nnc1N/N=C\c1ccccc1O,1.52
3,Nn1c(S)nnc1N/N=C\c1cccc(F)c1,12.5

# Target: T1, Mushroom tyrosinase
# Test: Inhibition of mushroom tyrosinase using L-DOPA as substrate incubated for 20 mins
# Type: protein assay
row,SMILES,IC50 [µM]
1,COc1ccccc1Cc1n[nH]c(=S)n1/N=C/Cc1ccc(O)cc1,20.27
2,Oc1ccccc1Cc1n[nH]c(=S)n1/N=C/c1ccc[nH]1,26.02
3,Oc1ccc(/C=N/n2c(Cc3ccccc3F)n[nH]c2=S)cc1,6.23
4,Fc1ccc(/C=N/n2c(Cc3ccccc3F)n[nH]c2=S)cc1,10.09

# Target: T3, Tyrosinase (Homo sapiens, UniProt P14679)
# T3 sequence (P14679 whole entry): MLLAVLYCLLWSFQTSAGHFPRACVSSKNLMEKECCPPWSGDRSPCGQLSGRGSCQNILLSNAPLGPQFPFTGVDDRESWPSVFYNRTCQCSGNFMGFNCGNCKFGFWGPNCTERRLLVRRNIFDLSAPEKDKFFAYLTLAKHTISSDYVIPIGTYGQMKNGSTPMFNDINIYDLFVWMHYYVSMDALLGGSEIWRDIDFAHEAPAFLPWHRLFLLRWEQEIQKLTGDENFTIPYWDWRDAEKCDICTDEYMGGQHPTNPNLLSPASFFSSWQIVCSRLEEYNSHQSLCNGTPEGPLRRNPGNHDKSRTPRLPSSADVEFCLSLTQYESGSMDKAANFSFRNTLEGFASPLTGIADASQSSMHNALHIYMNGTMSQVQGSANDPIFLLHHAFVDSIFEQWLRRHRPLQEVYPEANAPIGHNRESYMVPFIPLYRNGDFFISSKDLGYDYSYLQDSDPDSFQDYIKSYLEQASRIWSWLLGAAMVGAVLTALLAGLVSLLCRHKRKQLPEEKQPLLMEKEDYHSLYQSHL
# Test: Inhibition of C-terminal His-tagged truncated form of human tyrosinase using L-DOPA as substrate by spectrophotometric assay
row,SMILES,IC50 [µM]
1,O=C1c2ccccc2C(=O)N1Cc1cn(Cc2ccccc2Br)nn1,26.5
2,O=C1NC(=S)NC(=O)C1=Cc1ccccc1OCc1cn(Cc2ccc(Br)cc2)nn1,44.2
3,O=C1c2ccccc2C(=O)N1Cc1cn(Cc2ccc(Br)cc2)nn1,40.3
4,O=C1c2ccccc2C(=O)N1Cc1cn(Cc2ccccc2[N+](=O)[O-])nn1,26.2
5,O=C1c2ccccc2C(=O)N1Cc1cn(Cc2ccccc2Cl)nn1,47.2
6,O=C1c2ccccc2C(=O)N1Cc1cn(Cc2cccc(Cl)c2)nn1,48.3

# Target: T2, Mushroom tyrosinase (Agaricus bisporus)
# Test: (§1) Inhibition of mushroom tyrosinase using L-DOPA as substrate incubated for 15 mins by spectrophotometric analysis
# Type: protein assay
row,SMILES,inhibition [%]
1,O=c1oc2ccccc2c2nn(Cc3cn(-c4c(Cl)cc(Cl)cc4Cl)nn3)cc12,58
2,O=c1oc2ccccc2c2c1cnn2Cc1cn(-c2ccccc2)nn1,85
3,O=c1oc2ccccc2c2nn(Cc3cn(-c4ccccc4)nn3)cc12,69

# Target: T1, Mushroom tyrosinase
# Test: as §1
# Type: protein assay
row,SMILES,IC50
1,O=C1NC(=S)NC(=O)C1=Cc1ccccc1OCc1cn(Cc2ccccc2)nn1,44.2 µM
2,O=C1NC(=O)C(=Cc2ccccc2OCc2cn(Cc3ccc(Br)cc3)nn2)C(=O)N1,26.8 µM and 49.1 µM
3,O=C1NC(=O)C(=Cc2ccccc2OCc2cn(Cc3ccccc3)nn2)C(=O)N1,44.2 µM

# Target: T3, Tyrosinase
# Test: Competitive inhibition of His-tagged human tyrosinase expressed in HEK293 cells
# Type: cell-based
row,SMILES,IC50 [µM]
1,Cc1ccc(Cn2cc(COc3ccc(/C=N/NC(N)=S)cc3)nn2)cc1,0.22
2,NC(=S)N/N=C/c1ccc(OCc2cn(Cc3ccc(Cl)c(Cl)c3)nn2)cc1,0.22
3,NC(=S)N/N=C/c1ccc(OCc2cn(Cc3ccc(F)cc3)nn2)cc1,0.22
4,Cc1cccc(Cn2cc(COc3ccc(/C=N/NC(N)=S)cc3)nn2)c1,0.22

# Target: T1, Mushroom tyrosinase
# Test: Inhibition of mushroom tyrosinase using L-DOPA as substrate preincubated for 20 mins followed by substrate addition incubated for 10 mins by absorbance based analysis
# Type: protein assay
row,SMILES,IC50 [µM]
1,O=c1cc(OCc2cn(Cc3cc(=O)c(O)co3)nn2)c2ccccc2o1,0.02
2,COc1cc(C(C)=O)ccc1OCc1cn(Cc2cc(=O)c(O)co2)nn1,0.03
3,O=c1cc(Cn2cc(COc3ccc4c(c3)OCO4)nn2)occ1O,0.06
4,Cc1ccc(C(C)C)cc1OCc1cn(Cc2cc(=O)c(O)co2)nn1,0.07
5,Cc1ccc(C(C)C)c(OCc2cn(Cc3cc(=O)c(O)co3)nn2)c1,0.69
6,O=c1ccc2ccc(OCc3cn(Cc4cc(=O)c(O)co4)nn3)cc2o1,0.23
